Measurements as given in patent US20210322507A1, “GENOTYPE-DIRECTED LOCAL DELIVERY OF TARGETED THERAPEUTICS” (Massachusetts Institute of Technology, priority 2017, published 2021).

Columns and labels:
[1] = given systemically; cited from earlier work
[2] = Pharmacokinetic analysis of GMX-1778 after oral gavage (plasma and brain, UPLC-ESI-MS); assay type: in vivo, SCID mice; conditions: 250 mg/kg oral gavage
Protocol: GMX-1778 was dissolved in 20% captisol (CyDex) and administered by oral gavage to 6-7 week old female SCID mice at a dose of 250 mg/kg. Vehicle treated animals received similar volume of 5% dextrose prepared in 20% captisol by oral gavage. GMX-1778 treated animals were sacrificed at 30 minutes, 2 hours, 6 hours and 24 hours following treatment. Blood was collected by cardiac puncture and centrifuged at 6000 g for 5 minutes. The brain was homogenized in 3 volumes of PBS with 5% bovine serum albumin (Sigma-Aldrich). GMX-1778 was then extracted into the organic phase by a modified protocol described previously^31. Briefly, 25 μL plasma or 100 μL brain homogenate was added to 10 μL FK-866 (250 ng/mL prepared in methanol). Then, 800 μL ethyl acetate was added and the sample was vortexed and mixed overnight. The sample was then centrifuged at 3000 rpm for 10 minutes and 600 μL supernatant was transferred to a new tube. The sample was dried overnight and reconstituted in 200 μL acetonitrile. Stock solutions of GMX-1778 and an internal standard FK-866 were prepared in acetonitrile at a concentration of 500 μg/mL. A10-point calibration curve ranging from 5 to 5000 ng/mL was prepared. Quality control samples were prepared by a similar procedure using an independent stock solution at three concentrations (25, 250, and 2500 ng/mL). For analysis, 2.5 μL sample was injected on the UPLC-ESI-MS system.
Ultra-performance LC (UPLC) separation was carried out on a Waters UPLC aligned with a Waters Xevo TQ-SMS mass spectrometer (Waters Ltd.). MassLynx 4.1 software was used for data acquisition and analysis. LC separation was performed on an Acquity UPLC High Strength Silica Trifunctional C18 (50 mm×2.1 mm; particle size, 1.8 μm) at 50° C. The mobile phase consisted of acetonitrile, 0.1% formic acid, 10 mM ammonium formate solution flowed at a rate of 0.6 mL/minute using a time and solvent gradient composition. The initial mobile phase composition (100%) was held for 1.0 minutes, and then changed to 20% over the next 0.25 minutes. […]

[3] = Systemic toxicity analysis of oral GMX-1778; assay type: in vivo, SCID mice
Protocol: Adult SCID female mice of 6-7 weeks were administered GMX-1778 daily for 5 days by oral gavage (250 mg/kg). Body weights were recorded prior to administration and at the end of the study. Blood samples were analyzed for complete blood count by HemaTrue (Heska Lab Systems) and chemistry panel by DriChem (Heska Lab Systems). Liver and heart were fixed in formalin and analyzed for histologic toxicity by hematoxylin and eosin (H&E) staining. Eyes were removed by enucleation and placed in Davidson's fixative for 24 hours prior to formalin and subsequently analyzed for toxicity on H&E slides.

SMILES: O=C(/C=C/c1cccnc1)NCCCCC1CCN(C(=O)c2ccccc2)CC1 [FK866]
- Blood-brain barrier penetration / brain accumulation [1]: does not measurably accumulate in the brain parenchyma

SMILES: N#CN=C(NCCCCCCOc1ccc(Cl)cc1)Nc1ccncc1 [GMX-1778]
- Detectability of drug in brain within 24 hours ([2]; 24 hours): no longer detectable
- Maximum (peak) drug concentration in brain ([2]; SCID mice, at 2 hours): 3.0 ± 1.5 µM
- Maximum (peak) drug concentration in plasma ([2]; SCID mice, at 2 hours): 18.0 ± 3.6 µM
- Liver histology (H&E) ([3]; 250 mg/kg oral GMX-1778): eosinophilic cholangitis
- Hemoglobin (anemia) ([3]; 250 mg/kg oral daily for 5 days, control 9.2±0.5 g/dL): 6.7 ± 0.8 g/dL
- Uremia (chemistry panel) ([3]; 250 mg/kg oral daily for 5 days, control 15±0.5 mg/dL): 20.5 ± 1.9 mg/dL
- Body weight after administration (weight loss) ([3]; 250 mg/kg oral daily for 5 days, control dextrose 21.8±0.6 g): 17.9 ± 1.1 g
- Blood-brain barrier penetration / brain accumulation [1]: partially blood-brain barrier penetrant
